Measurements from ChEMBL document CHEMBL1156251, “Structure--activity relationships of polymyxin antibiotics” (J Med Chem, 2010).
≈ marks a conversion by molar mass, not a printed value. Where a SMILES comes first, the peptide text is derived from it. Bridges are numbered along the chain shown (N, C = ends). [ ]: non-standard residue; d: D form. The star is where a group is joined. Heptanoyl(6-Me) = CC(C)CCCCC(=O)*; Octanoyl(6-Me) = CCC(C)CCCCC(=O)*; Dab = NCC[C@H](N)C(=O)O; Ava = NCCCCC(=O)O

What was measured:
Escherichia coli = assay: Antimicrobial activity against Escherichia coli; assay type: functional
Salmonella enterica = assay: Antimicrobial activity against Salmonella enterica; assay type: functional
Pseudomonas aeruginosa = assay: Antimicrobial activity against Pseudomonas aeruginosa; assay type: functional, organism-based

Row | Compound | MIC (Escherichia coli) | IC50 (Pseudomonas aeruginosa) | further results
1 | CCCC1CCC(C(=O)N[C@@H](CCN)C(=O)N[C@H](C(=O)N[C@@H](CCN)C(=O)N[C@H]2CCNC(=O)[C@H]([C@@H](C)O)NC(=O)[C@H](CCN)NC(=O)[C@H](CCN)NC(=O)[C@H](CC(C)C)NC(=O)[C@@H](Cc3ccccc3)NC(=O)[C@H](CCN)NC2=O)[C@@H](C)O)CC1 (stereo partly drawn) | 4 µM |  | MIC (Salmonella enterica): 4 µM (≈ 4.86 µg/mL); MIC (Pseudomonas aeruginosa): 2 µM (≈ 2.43 µg/mL)
2 | CCCC1CCC(C(=O)N[C@@H](CCN)C(=O)N[C@H](C(=O)N[C@@H](CCN)C(=O)N[C@H]2CCNC(=O)[C@H]([C@@H](C)O)NC(=O)[C@H](CCN)NC(=O)[C@H](CCN)NC(=O)[C@H](CC(C)C)NC(=O)[C@@H](CC(C)C)NC(=O)[C@H](CCN)NC2=O)[C@@H](C)O)CC1 (stereo partly drawn) | 8 µM |  | MIC (Salmonella enterica): 8 µM (≈ 9.45 µg/mL); MIC (Pseudomonas aeruginosa): 2 µM (≈ 2.36 µg/mL)
3 | CCC(C)CCCCCOC(=O)[C@H](CCCCN)NC(=O)C(NC(=O)[C@H](CCCCN)NC(=O)[C@H](CCCCN)NC(=O)[C@@H](NC(=O)[C@H](CCCCN)NC(=O)[C@@H](CCCCN)NC(=O)[C@@H](N)CC(C)C)[C@@H](C)O)[C@@H](C)O (single isomer, unassigned) | 50 µg/mL |  | 
4 | CCC(C)CCCCCOC(=O)[C@H](CCCCN)NC(=O)C(NC(=O)[C@H](CCCCN)NC(=O)[C@H](CCCCN)NC(=O)[C@@H](NC(=O)[C@H](CCCCN)NC(=O)[C@@H](CCCCN)NC(=O)[C@H](CC(C)C)NC(=O)[C@@H](CCCCN)NC(=O)[C@@H](N)CC(C)C)[C@@H](C)O)[C@@H](C)O (single isomer, unassigned) | 100 µg/mL |  | 
5 | CCC(C)CCCCC(=O)N[C@@H](CCN)C(=O)N[C@H](C(=O)N[C@@H](CCN)C(=O)N[C@H]1CCNC(=O)[C@H]([C@@H](C)O)NC(=O)[C@H](CCN)NC(=O)[C@H](CCN)NC(=O)CCCCNC(=O)[C@H](CCN)NC1=O)[C@@H](C)O (stereo partly drawn) ({Octanoyl(6-Me)}-[Dab]T[Dab][Dab][Dab][Ava][Dab][Dab]T; lactam 4-C) | 500 µg/mL |  | 
6 | CCC(C)CCCCC(=O)N[C@@H](CCNc1ccc([N+](=O)[O-])cc1[N+](=O)[O-])C(=O)N[C@@H](C(=O)N[C@@H](CCNc1ccc([N+](=O)[O-])cc1[N+](=O)[O-])C(=O)N[C@H]1CCNC(=O)[C@@H]([C@@H](C)O)NC(=O)[C@H](CCNc2ccc([N+](=O)[O-])cc2[N+](=O)[O-])NC(=O)[C@H](CCNc2ccc([N+](=O)[O-])cc2[N+](=O)[O-])NC(=O)[C@H](CC(C)C)NC(=O)[C@@H](Cc2ccccc2)NC(=O)[C@H](CCN)NC1=O)[C@@H](C)O (stereo partly drawn) [2,4-DINITROPHENYL POLYMYXIN B] |  | 73 µg/mL (≈ 39.1 µM) | 
7 | CCCC(=O)N[C@@H](CCN)C(=O)N[C@@H](C(=O)N[C@@H](CCN)C(=O)N[C@H]1CCNC(=O)[C@@H]([C@@H](C)O)NC(=O)[C@H](CCN)NC(=O)[C@H](CCN)NC(=O)[C@H](CC(C)C)NC(=O)[C@@H](Cc2ccccc2)NC(=O)[C@H](CCN)NC1=O)[C@@H](C)O [BUTANOYL FATTY ACYL POLYMYXIN B] | 23 µg/mL |  | 
8 | CC(C)CCCCC(=O)N[C@@H](CCN)C(=O)N[C@H](C(=O)N[C@@H](CCN)C(=O)N[C@H]1CCNC(=O)[C@H]([C@@H](C)O)NC(=O)[C@H](CCN)NC(=O)[C@H](CCN)NC(=O)[C@H](CC(C)C)NC(=O)[C@@H](CC(C)C)NC(=O)[C@H](CCN)NC1=O)[C@@H](C)O [COLISTIN B] ({Heptanoyl(6-Me)}-[Dab]T[Dab][Dab][Dab][dL]L[Dab][Dab]T; lactam 4-C) | 1.6 µg/mL |  | 
9 | COLISTIN | 0.8 µg/mL |  | 

Second part, led by results:

Row | MIC (Escherichia coli) | IC50 (Pseudomonas aeruginosa) | Compound | further results
10 |  | 70 µg/mL (≈ 58.4 µM) | CCC(C)CCCCC(=O)N[C@@H](CC=O)C(=O)N[C@H](C(=O)N[C@@H](CC=O)C(=O)N[C@H]1CCNC(=O)[C@H]([C@@H](C)O)NC(=O)[C@H](CC=O)NC(=O)[C@H](CC=O)NC(=O)[C@H](CC(C)C)NC(=O)[C@@H](Cc2ccccc2)NC(=O)[C@H](CC=O)NC1=O)[C@@H](C)O (stereo partly drawn) [Desamino Polymyxin B] | 
11 | 0.7 µg/mL |  | CCCCCC(=O)N[C@@H](CCN)C(=O)N[C@@H](C(=O)N[C@@H](CCN)C(=O)N[C@H]1CCNC(=O)[C@@H]([C@@H](C)O)NC(=O)[C@H](CCN)NC(=O)[C@H](CCN)NC(=O)[C@H](CC(C)C)NC(=O)[C@@H](Cc2ccccc2)NC(=O)[C@H](CCN)NC1=O)[C@@H](C)O [HEXANOYL FATTY ACYL POLYMYXIN B] | 
12 |  | 10.7 µg/mL (≈ 5.03 µM) | CCC(C)CCCCC(=O)N[C@@H](CCNCc1c(COP(=O)(O)O)cnc(C)c1O)C(=O)N[C@@H](C(=O)N[C@@H](CCNCc1c(COP(=O)(O)O)cnc(C)c1O)C(=O)N[C@H]1CCNC(=O)[C@@H]([C@@H](C)O)NC(=O)[C@H](CCNCc2c(COP(=O)(O)O)cnc(C)c2O)NC(=O)[C@H](CCNCc2c(COP(=O)(O)O)cnc(C)c2O)NC(=O)[C@H](CC(C)C)NC(=O)[C@@H](Cc2ccccc2)NC(=O)[C@H](CCN)NC1=O)[C@@H](C)O (stereo partly drawn) [PYRIDOXAL POLYMYXIN B] | 
13 |  | 68 µg/mL (≈ 35.3 µM) | CCC(C)CCCCC(=O)N[C@@H](CCNc1cc(N)c([N+](=O)[O-])cc1[N+](=O)[O-])C(=O)N[C@@H](C(=O)N[C@@H](CCNc1cc(N)c([N+](=O)[O-])cc1[N+](=O)[O-])C(=O)N[C@H]1CCNC(=O)[C@@H]([C@@H](C)O)NC(=O)[C@H](CCNc2cc(N)c([N+](=O)[O-])cc2[N+](=O)[O-])NC(=O)[C@H](CCNc2cc(N)c([N+](=O)[O-])cc2[N+](=O)[O-])NC(=O)[C@H](CC(C)C)NC(=O)[C@@H](Cc2ccccc2)NC(=O)[C@H](CCN)NC1=O)[C@@H](C)O (stereo partly drawn) [TETRA 5-AMINO-2,4-DINITROPHENYL POLYMYXIN B] | 
14 |  | 10.2 µg/mL (≈ 5.74 µM) | CCC(C)CCCCC(=O)N[C@@H](CCNC(=O)n1ccc2ccccc21)C(=O)N[C@@H](C(=O)N[C@@H](CCNC(=O)n1ccc2ccccc21)C(=O)N[C@H]1CCNC(=O)[C@@H]([C@@H](C)O)NC(=O)[C@H](CCNC(=O)n2ccc3ccccc32)NC(=O)[C@H](CCNC(=O)n2ccc3ccccc32)NC(=O)[C@H](CC(C)C)NC(=O)[C@@H](Cc2ccccc2)NC(=O)[C@H](CCN)NC1=O)[C@@H](C)O (stereo partly drawn) [TETRA INDOLE ALDEHYDE POLYMYXIN B] | 
